Experimental data taken from patent US10118929B2, “Nonanoic and decanoic acid derivatives and uses thereof” (SciFluor Life Sciences, Inc., priority 2016, dated 2018).

What was measured:
αvβ6 = αvβ6 (Homo sapiens (Human), UniProt P06756+P18564); assay: αVβ6-LAP-TGF β1 integrin binding assay (integrin coupled beads, flow cytometry); details: ligand LAP-TGF β1 10 nM; integrin 10 nM
Description: (§1) αVβ6/αVβ8-LAP-TGF β1 Binding Assay
(§2) Integrins αVβ6/αVβ8 coupled beads are treated with an αVβ6/αVβ8 ligand (e.g., LAP TGF-β1 (LAP1)), and the complex is incubated with a primary antibody (Ab), which can be labeled for detection (e.g., fluorescently labeled), and optionally with a secondary antibody, which can be labeled for detection (e.g., fluorescently labeled). Reaction between integrin coupled beads and the ligand was considered as the full reaction, and reaction without the ligand or a compound of the disclosure was considered as the blank reaction. The complex is analyzed, e.g., by either plate reader or Flow Cytometer, to determine modulation of binding between αVβ6/αVβ8 and the ligand (e.g., LAP-TGF β1) by the compounds of the present application.
All αv Integrins are known to bind to proteins with a RGD motif. […]
The integrin coupled Dyna beads were allowed to interact with respective ligands. The integrin-ligand complex was detected with either Primary/Secondary Antibody conjugated with Fluorescein Isothiocyanate (FITC). […] Fluorescence was measured by Flow Cytometry analysis. […]
(§3) The tubes were taken out and subjected to a quick spin. […] The amount of protein bound to beads was quantified by measuring the sum of protein left in the Supernatant, W1, W2, W3 and W4 through the Micro BCA method. […]

αvβ8 = αvβ8 (Homo sapiens (Human), UniProt P06756+P26012); assay: αVβ8-LAP-TGF β1 integrin binding assay (integrin coupled beads, flow cytometry); details: for IC50: ligand LAP-TGF β1 20 nM, integrin 10 nM
Description: as §1, §2
All αv Integrins are known to bind to proteins with a RGD motif. Two RGD ligands were used in this study: Vitronectin (VN) as a ligand for αvβ3 and αvβ5 (Wayner et al., J. Cell Biol., 113 (4), 919-929, 1991), and LAP TGF-β1 (LAP1) as a ligand for αvβ6 and αvβ8 (Rognoni et al., Nat. Med., 20(4): 350-359, 2014). CWHM12 was used as a positive control for αvβ6 and αvβ8 (Henderson et al., Nat. Med. 19(12), 10.1038/nm.3282 2013), and Cilengitide as a positive control for αvβ3 and αvβ5 (Kumar et al., J. Pharmacol. Exp. Ther., 283, 843-853, 1997).
The integrin coupled Dyna beads were allowed to interact with respective ligands. The integrin-ligand complex was detected with either Primary/Secondary Antibody conjugated with Fluorescein Isothiocyanate (FITC). For αvβ3 and αvβ5, Vitronectin was used as a ligand and a primary antibody conjugated with FITC (Anti-VN-FITC Ab) was used to detect the interaction. For αvβ6 and αvβ8, LAP-TGF β1 was used as ligand and a primary antibody against LAP1 (Anti-LAP1 Ab) and a secondary antibody conjugated with FITC were used to detect the αv β6/αvβ8-LAP-TGF β1 complex. Fluorescence was measured by Flow Cytometry analysis.
5 mg of Dyna beads were weighed in a low protein binding microfuge (Eppendorf) tube (1.5 mL volume). The beads were re-suspended in 1 mL of Sodium Phosphate Buffer and vortexed at high speed for 30 seconds. The tube was then placed in a tube roller and tilt rotated for 10 min. After tilt rotation, the tube was placed on the Magna Spin and the beads were allowed to settle. The supernatant was discarded and the beads were washed three times. The beads were then re-suspended in 100 μL of Sodium Phosphate Buffer and 20 μL of washed beads were distributed into 5 low protein binding Eppendorf tubes (1 mg of beads in each tube). The beads were used for coupling integrins. […]
as §3

αvβ8, sequence (P06756 31-992): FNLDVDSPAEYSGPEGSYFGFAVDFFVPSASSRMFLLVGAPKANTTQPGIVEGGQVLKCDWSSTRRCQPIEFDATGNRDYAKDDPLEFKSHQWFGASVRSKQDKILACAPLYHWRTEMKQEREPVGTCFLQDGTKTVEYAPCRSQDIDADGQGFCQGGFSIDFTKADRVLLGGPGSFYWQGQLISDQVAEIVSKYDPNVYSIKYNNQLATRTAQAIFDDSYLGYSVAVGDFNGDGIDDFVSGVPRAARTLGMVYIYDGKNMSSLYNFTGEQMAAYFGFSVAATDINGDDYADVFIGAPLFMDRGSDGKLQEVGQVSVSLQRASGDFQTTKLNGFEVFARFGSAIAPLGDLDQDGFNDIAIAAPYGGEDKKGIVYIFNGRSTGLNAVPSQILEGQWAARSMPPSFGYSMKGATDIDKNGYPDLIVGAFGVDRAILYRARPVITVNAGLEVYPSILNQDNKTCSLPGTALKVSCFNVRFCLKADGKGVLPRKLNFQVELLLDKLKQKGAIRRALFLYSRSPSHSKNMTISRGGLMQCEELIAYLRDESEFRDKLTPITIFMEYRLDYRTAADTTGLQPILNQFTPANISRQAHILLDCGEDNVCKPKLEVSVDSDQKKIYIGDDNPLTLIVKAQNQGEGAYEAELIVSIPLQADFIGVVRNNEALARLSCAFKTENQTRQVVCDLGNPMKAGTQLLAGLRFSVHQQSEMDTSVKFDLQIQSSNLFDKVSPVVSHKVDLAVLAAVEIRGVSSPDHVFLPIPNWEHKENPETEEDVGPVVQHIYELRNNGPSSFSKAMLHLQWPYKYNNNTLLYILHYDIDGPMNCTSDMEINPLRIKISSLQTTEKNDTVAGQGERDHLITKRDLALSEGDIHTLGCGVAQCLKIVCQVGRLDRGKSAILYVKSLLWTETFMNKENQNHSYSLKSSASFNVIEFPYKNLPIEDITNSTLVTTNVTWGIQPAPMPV
αvβ8, sequence (P26012 43-684): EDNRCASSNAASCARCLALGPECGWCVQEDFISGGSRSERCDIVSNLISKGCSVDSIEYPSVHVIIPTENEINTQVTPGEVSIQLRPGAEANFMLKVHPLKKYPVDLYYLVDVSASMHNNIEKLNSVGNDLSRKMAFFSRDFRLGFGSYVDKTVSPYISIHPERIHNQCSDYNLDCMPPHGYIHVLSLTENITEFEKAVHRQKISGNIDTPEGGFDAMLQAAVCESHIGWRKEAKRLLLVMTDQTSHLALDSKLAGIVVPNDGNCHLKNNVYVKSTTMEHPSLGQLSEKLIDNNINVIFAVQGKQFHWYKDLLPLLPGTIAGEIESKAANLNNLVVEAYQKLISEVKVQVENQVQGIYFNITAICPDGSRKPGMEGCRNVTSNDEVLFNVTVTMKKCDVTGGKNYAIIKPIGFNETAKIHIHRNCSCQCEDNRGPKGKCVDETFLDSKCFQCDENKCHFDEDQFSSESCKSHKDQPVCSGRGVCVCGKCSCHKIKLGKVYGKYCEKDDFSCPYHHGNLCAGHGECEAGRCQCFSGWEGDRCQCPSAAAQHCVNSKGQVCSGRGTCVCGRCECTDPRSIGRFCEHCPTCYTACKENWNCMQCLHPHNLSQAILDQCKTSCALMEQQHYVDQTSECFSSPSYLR
αvβ6, sequence (P06756 31-992): as the sequence (P06756 31-992) above
αvβ6, sequence (P18564 22-707): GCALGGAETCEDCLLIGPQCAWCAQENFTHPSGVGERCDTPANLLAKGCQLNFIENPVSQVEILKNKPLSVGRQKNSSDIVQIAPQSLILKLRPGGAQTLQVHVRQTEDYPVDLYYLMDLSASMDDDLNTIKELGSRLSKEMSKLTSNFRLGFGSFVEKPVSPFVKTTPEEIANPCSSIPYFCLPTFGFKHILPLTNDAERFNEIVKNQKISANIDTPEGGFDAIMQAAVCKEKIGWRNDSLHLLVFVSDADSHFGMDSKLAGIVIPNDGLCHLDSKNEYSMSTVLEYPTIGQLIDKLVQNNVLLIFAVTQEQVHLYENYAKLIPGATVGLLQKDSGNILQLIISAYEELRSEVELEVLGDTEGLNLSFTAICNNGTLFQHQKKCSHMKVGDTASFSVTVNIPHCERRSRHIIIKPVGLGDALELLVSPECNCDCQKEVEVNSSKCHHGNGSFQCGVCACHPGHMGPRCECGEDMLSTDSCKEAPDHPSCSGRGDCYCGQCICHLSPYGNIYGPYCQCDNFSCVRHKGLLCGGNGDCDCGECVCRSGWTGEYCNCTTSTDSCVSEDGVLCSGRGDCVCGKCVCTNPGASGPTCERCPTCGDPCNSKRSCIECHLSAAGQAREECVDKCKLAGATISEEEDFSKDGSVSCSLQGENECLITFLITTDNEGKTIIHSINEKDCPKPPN

IC50 (αvβ6) [nM] | IC50 (αvβ8) [nM] | αvβ8/αvβ6 (αvβ8; ratio of αvβ8 IC50 to αvβ6 IC50) | Structure (SMILES)
376 | 50.4 | 0.13 | O=C(O)CC(c1cccc(C(F)(F)F)c1)N1CCN(CCCCNc2nc3ccccc3[nH]2)C1=O (stereo not drawn) [Compound A1, 3-(3-(4-((1H-benzo[d]imidazol-2-yl)amino)butyl)-2-oxoimidazolidin-1-yl)-3-(3-(trifluoromethyl)phenyl)propanoic acid]
– | 622 | – | O=C(O)CC(c1cccc(C(F)(F)F)c1)N1CCN(CCCCNC2=NCc3ccccc3C2)C1=O (stereo not drawn) [Compound A8]
394 | 232 | – | O=C(O)CC(c1cccc(C(F)(F)F)c1)N1CCN(CCCCNc2ccccn2)C1=O (stereo not drawn) [Compound A10]
